Experiment: Thermal stability note in synthesis of Example 2
Format: physicochemical
Conditions: observation on isolated title compound
Description: To a solution of Intermediate 27 (42 mg, 0.068 mmol) in N,N-dimethylformamide (1.5 mL) a solution of formic hydrazide (14 mg, 0.229 mmol) in N,N-dimethylformamide (0.3 mL) followed by mercury(II) chloride (62 mg, 0.229 mmol) were introduced. After 5 minutes stirring at room temperature under an atmosphere of nitrogen, a solution of triethylamine (23 mg, 0.229 mmol) in N,N-dimethylformamide (0.2 mL) was introduced and the reaction warmed to 80° C. for 1.7 hours. After cooling to room temperature, the reaction mixture was diluted with dichloromethane (10 mL), kieselguhr (1.0 g) was introduced, and the suspension stirred for 10 minutes. The suspension was then filtered and the filter-cake washed with dichloromethane (10 mL). Evaporation of the combined filtrates in-vacuo furnished a residue which was purified by low pH preparative liquid chromatography to furnish the title compound (2.3 mg at 88% purity LCMS-UV215, 5% yield) as a colourless solid. LCMS [m+H]^+ 553, RT 2.07 min (Method 3).

Structure (SMILES): Cc1cc(Nc2nncn2C2CCc3cc4cnc(C5CC5)cc4c(S(=O)(=O)NCC(C)(C)F)c3C2)n(C)n1 (stereo not shown) [Example 2, 3-cyclopropyl-7-[3-[(2,5-dimethylpyrazol-3-yl)amino]-1,2,4-triazol-4-yl]-N-(2-fluoro-2-methylpropyl)-6,7,8,9-tetrahydrobenzo[g]isoquinoline-5-sulfonamide]
- thermal stability: thermally unstable
